Where two headings read alike, the source gives them in different places.
Tested on: HCV replicon
Assay: HCV replicon luciferase reporter assay
Type: cell-based
Conditions: Table 5, read-out: IC50
In short: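 Replicon-bearing dividing cells seeded at 5,000–7,500 cells/well, grown 24 h at 37° C/5% CO2, then exposed to test compound at various concentrations for a further 24–48 h. Replication/translation read by luciferase reporter; IC50 taken as compound amount giving 50% reduction in luciferase activity.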

Structure (SMILES) | IC50 (Hepatitis C virus) [µM] | IC50 [µM]
O=C(NCCNc1nsc2ccccc12)c1cccc(C(=O)NC2CC2)c1 [Compound 431, N^1-(2-(benzo[d]isothiazol-3-ylamino)ethyl)-N^3-cyclopropylisophthalamide] | < 5 | –
COc1ccc2[nH]c(C(=O)NCCNc3nsc4ccc(Cl)cc34)cc2c1 [Compound 432, N-(2-(5-chlorobenzo[d]isothiazol-3-ylamino)ethyl)-5-methoxy-1H-indole-2-carboxamide] | < 5 | –
O=C(NCCCNc1nsc2ccccc12)c1cc2ccc([N+](=O)[O-])cc2s1 [Compound 433, N-(3-(benzo[d]isothiazol-3-ylamino)propyl)-6-nitrobenzo[b]thiophene-2-carboxamide] | < 5 | –
c1ccc2c(NCCCNc3nsc4ccccc34)nsc2c1 [Compound 434, N^1,N^3-di(benzo[d]isothiazol-3-yl)propane-1,3-diamine] | < 5 | –
COc1cccc2cc(C(=O)NCCCNc3nsc4ccccc34)oc12 [Compound 435, N-(3-(benzo[d]isothiazol-3-ylamino)propyl)-7-methoxybenzofuran-2-carboxamide] | < 5 | –
O=C(NCCCNc1nsc2ccccc12)c1cc2cc(Cl)ccc2o1 [Compound 436, N-(3-(benzo[d]isothiazol-3-ylamino)propyl)-5-chlorobenzofuran-2-carboxamide] | < 5 | –
COc1ccc2oc(C(=O)NCCCNc3nsc4ccccc34)cc2c1 [Compound 437, N-(3-(benzo[d]isothiazol-3-ylamino)propyl)-5-methoxybenzofuran-2-carboxamide] | < 5 | –
COc1ccc(-c2cccc(C(=O)NCCCNc3nsc4ccccc34)n2)c(OC)c1 [Compound 438, N-(3-(benzo[d]isothiazol-3-ylamino)propyl)-6-(2,4-dimethoxyphenyl)picolinamide] | < 5 | –
O=C(NCCCNc1nsc2ccccc12)c1cc2ccc([N+](=O)[O-])cc2o1 [Compound 439, N-(3-(benzo[d]isothiazol-3-ylamino)propyl)-6-nitrobenzofuran-2-carboxamide] | < 5 | –
CS(=O)(=O)c1ccc(-c2cccc(C(=O)NCCCNc3nsc4ccccc34)n2)cc1 [Compound 440, N-(3-(benzo[d]isothiazol-3-ylamino)propyl)-6-(4-(methylsulfonyl)phenyl)picolinamide] | < 5 | –
CC1=NN(c2ccc(C(=O)NCCNc3nsc4ccccc34)cc2)C(=O)C1 [Compound 441, N-(2-(benzo[d]isothiazol-3-ylamino)ethyl)-4-(3-methyl-5-oxo-4,5-dihydropyrazol-1-yl)benzamide] | > 5 | –
O=C(NCCCNc1nsc2ccccc12)c1ccc(Br)nc1 [Compound 443, N-(3-(benzo[d]isothiazol-3-ylamino)propyl)-6-bromonicotinamide] | < 5 | –
CN(C)CCCNc1cccc(C(=O)NCCCNc2nsc3ccccc23)n1 [Compound 447, N-(3-(benzo[d]isothiazol-3-ylamino)propyl)-6-(3-(dimethylamino)propylamino)picolinamide] | < 5 | –
CCCCNc1cccc(C(=O)NCCCNc2nsc3ccccc23)n1 [Compound 448, N-(3-(benzo[d]isothiazol-3-ylamino)propyl)-6-(butylamino)picolinamide] | > 5 | –
O=C(NCCCNc1nsc2ccccc12)c1ccc2[nH]cnc2c1 [Compound 449, N-(3-(benzo[d]isothiazol-3-ylamino)propyl)-1H-benzo[d]imidazole-5-carboxamide] | > 5 | –
O=C(NCCCNc1nsc2ccccc12)c1ccc2[nH]ccc2c1 [Compound 450, N-(3-(benzo[d]isothiazol-3-ylamino)propyl)-1H-indole-5-carboxamide] | < 5 | –

Structure (SMILES) | IC50 (Hepatitis C virus) [µM] | IC50 [µM]
O=C(NCCCNc1nsc2ccccc12)c1ccc(O)nc1 [Compound 451, N-(3-(benzo[d]isothiazol-3-ylamino)propyl)-6-hydroxynicotinamide] | > 5 | –
O=C(NCCCNc1nsc2ccccc12)c1cnc(O)c(Cl)c1 [Compound 452, N-(3-(benzo[d]isothiazol-3-ylamino)propyl)-5-chloro-6-hydroxynicotinamide] | > 5 | –
CCCCC(=O)Nc1ccc2oc(C(=O)NCCCNc3nsc4ccccc34)cc2c1 [Compound 453, N-(3-(benzo[d]isothiazol-3-ylamino)propyl)-5-pentanamidobenzofuran-2-carboxamide] | < 5 | –
CCCC(=O)Nc1ccc2oc(C(=O)NCCCNc3nsc4ccccc34)cc2c1 [Compound 454, N-(3-(benzo[d]isothiazol-3-ylamino)propyl)-5-butyramidobenzofuran-2-carboxamide] | < 5 | –
CCCNC(=O)Nc1ccc2oc(C(=O)NCCCNc3nsc4ccccc34)cc2c1 [Compound 455, N-(3-(benzo[d]isothiazol-3-ylamino)propyl)-5-(3-propylureido)benzofuran-2-carboxamide] | < 5 | –
CCCCC(=O)Nc1ccc2sc(C(=O)NCCCNc3nsc4ccccc34)cc2c1 [Compound 456, N-(3-(benzo[d]isothiazol-3-ylamino)propyl)-5-pentanamidobenzo[b]thiophene-2-carboxamide] | < 5 | –
CCCC(=O)Nc1ccc2sc(C(=O)NCCCNc3nsc4ccccc34)cc2c1 [Compound 457, N-(3-(benzo[d]isothiazol-3-ylamino)propyl)-5-butyramidobenzo[b]thiophene-2-carboxamide] | < 5 | –
CCCNC(=O)Nc1ccc2sc(C(=O)NCCCNc3nsc4ccccc34)cc2c1 [Compound 458, N-(3-(benzo[d]isothiazol-3-ylamino)propyl)-5-(3-propylureido)benzo[b]thiophene-2-carboxamide] | > 5 | –
Nc1ccc2sc(C(=O)NCCCNc3nsc4ccccc34)cc2c1 [Compound 459, 5-amino-N-(3-(benzo[d]isothiazol-3-ylamino)propyl)benzo[b]thiophene-2-carboxamide] | < 5 | –
COc1ccc(-c2ccc(CN(C)CCCNc3nsc4ccccc34)cc2)cc1 [Compound 490, N^1-(benzo[d]isothiazol-3-yl)-N^3-((4′-methoxybiphenyl-4-yl)methyl)-N^3-methylpropane-1,3-diamine] | < 5 | –
COc1ccc(-c2ccc(C(=O)NCCCNc3nsc4cccc(C(F)(F)F)c34)cc2)cc1 [Compound 500, 4′-methoxy-N-(3-(4-(trifluoromethyl)benzo[d]isothiazol-3-ylamino)propyl)biphenyl-4-carboxamide] | > 5 | –
CC(C)(C)NS(=O)(=O)c1cccc2snc(NCCCN)c12 [Compound 506, 3-(3-aminopropylamino)-N-tert-butylbenzo[d]isothiazole-4-sulfonamide] | – | > 5
CC(C)(C)NS(=O)(=O)c1cccc2c(NCCCN)nsc12 [Compound 507, 3-(3-aminopropylamino)-N-tert-butylbenzo[d]isothiazole-7-sulfonamide] | – | > 5
CC(C)(C)NS(=O)(=O)c1ccc2c(NCCCN)nsc2c1 [Compound 508, 3-(3-aminopropylamino)-N-tert-butylbenzo[d]isothiazole-6-sulfonamide] | – | > 5
COc1ccc(CNS(=O)(=O)c2ccc3snc(NCCCNC(=O)c4ccc(-c5ccc(OC)cc5)cc4)c3c2)cc1 [Compound 515, 4′-methoxy-N-(3-(5-(N-(4-methoxybenzyl)sulfamoyl)benzo[d]isothiazol-3-ylamino)propyl)biphenyl-4-carboxamide] | > 5 | –

Reference: patent US7776847B2, “Benzisothiazoles useful for treating or preventing HCV infection” (priority 2005, dated 2010)
